Measurements as given in patent publication US20240374581A1, “SALT TYPES OF TRICYCLIC TETRAHYDRO ISOQUINOLINE DERIVATIVE” (JIANGSU HENGRUI PHARMACEUTICALS CO., LTD., priority 2021, published 2024).

What was measured:
Assay type in all cases: cell-based
[1] = biological target: ER (estrogen receptor) (Homo sapiens (Human), UniProt P03372); experiment: Inhibition of binding of E to ER (MCF-7/ERE-luciferase reporter); conditions: MCF-7/ERE-luciferase cells, 0.1 nM estradiol, 24 h; read-out: IC50, inhibitory effect on the binding of E to ER
ER (estrogen receptor), sequence (P03372 whole entry): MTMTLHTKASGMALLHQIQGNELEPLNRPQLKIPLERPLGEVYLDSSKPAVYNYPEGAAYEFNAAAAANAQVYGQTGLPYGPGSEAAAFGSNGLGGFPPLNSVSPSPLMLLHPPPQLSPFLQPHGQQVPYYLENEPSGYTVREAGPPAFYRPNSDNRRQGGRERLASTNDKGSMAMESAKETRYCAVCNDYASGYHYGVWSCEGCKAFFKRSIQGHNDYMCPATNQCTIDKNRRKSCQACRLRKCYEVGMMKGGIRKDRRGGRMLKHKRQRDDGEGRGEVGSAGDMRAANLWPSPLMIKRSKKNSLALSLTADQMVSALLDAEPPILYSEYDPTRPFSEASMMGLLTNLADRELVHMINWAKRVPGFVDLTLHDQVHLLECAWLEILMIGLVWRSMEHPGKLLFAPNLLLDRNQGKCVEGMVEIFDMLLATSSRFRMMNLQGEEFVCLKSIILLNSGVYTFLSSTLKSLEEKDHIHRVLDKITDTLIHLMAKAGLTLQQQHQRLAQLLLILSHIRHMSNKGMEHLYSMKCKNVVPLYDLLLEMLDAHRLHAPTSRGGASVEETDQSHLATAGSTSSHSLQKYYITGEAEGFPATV
Description: The compound of the present disclosure can inhibit the binding of E (estrogen) to ER (estrogen receptor), thereby blocking the binding of the complex of E and ER to ERE (estrogen response element), and consequently the expression of downstream luciferase proteins. The inhibitory effect of the compound of the present disclosure on the binding of E to ER was tested by using the following method.
An ERE was cloned upstream of the luciferase gene, and MCF-7/ERE-luciferase monoclonal cells were selected by transfection of MCF-7 (TCHu74, National Collection of Authenticated Cell Cultures). The MCF-7/ERE-luciferase cells were seeded into a 96-well plate with an MEM (hyclone, SH30024.01B) medium containing 10% charcoal stripped FBS (Moregate, FBSF), 1% sodium pyruvate (sigma, S8636), 1% non-essential amino acids (sigma, M7145) and 500 μg/mL G418 at a density of 30,000 cells/well and cultured at 37° C. with 5% CO2. […] The plate was let stand at room temperature in the dark for 10-15 min, and the chemiluminescence signal value was determined.
The inhibitory effect of the compound of the present disclosure on the binding of E to ER was determined through the above experiment. The chemiluminescence signal value was analyzed against the compound concentration (in log form) using Graphpad Prism, and the IC50 value of the compound was obtained.

[2] = biological target: ERα (Homo sapiens (Human), UniProt P03372); experiment: Degradation of ERα in MCF-7 cells (ELISA); conditions: 16 to 18 h, read-out: EC50, degradation of ERα
ERα, sequence (P03372 whole entry): as above
Description: ERα-positive breast cancer cell line MCF-7 cells were cultured in a DMEM/F12 medium (HyClone, SH30023.01) containing 10% fetal bovine serum (Corning, 35-010-CV). […] The 48-well plate was placed in the incubator for 16 to 18 h. A 96-well plate was coated with the capture antibody from the human ERα/NR3A1 total protein assay kit (R&D, DYC5715-5). […] The plate was placed in an incubator at 26° C. overnight. On day 3, the antibody-coated 96-well plate was washed once with PBS, and 200 μL of PBS containing 1% BSA was added to each well. The plate was incubated in an incubator at 37° C. for 1.5 h to be blocked. The cell culture medium supernatant was discarded. […] A biotinylated assay antibody was diluted to 0.4 μg/mL with PBS containing 1% BSA, and then 100 μL of the assay antibody was added to each well. The plate was incubated in an incubator at 37° C. for 1 h. The plate was then washed five more times, and 100 μL of avidin-HRP diluted 200-fold with PBS containing 1% BSA was added to each well. The plate was incubated at 37° C. for 30 min.

[3] = system: ERα Y537S mutant-expressing MCF7 cells; experiment: Inhibition of proliferation of ERα mutant-expressing MCF7 cells; conditions: Homo sapiens, 144 h, read-out: IC50, inhibitory effect on the proliferation of ERα mutant-expressing MCF7 cells
From the text: The mutant estrogen receptor α (ERα) Y537S of human ERα protein was obtained by site-directed mutagenesis in a two-primer PCR manner using the cDNA of wild-type ESR1 gene (Accession No. NM000125) as a template. The sequences of the primers used in the mutation are as follows (the underlined nucleotides are the sites of mutation): Y537S: F-AAGAACGTGGTGCCCCTCTCTGACCTGCTGCTGGAGATG (SEQ ID NO: 1); R-CATCTCCAGCAGCAGGTCAGAGAGGGGCACCACGTTCTT (SEQ ID NO: 2). The cDNA of the mutant ESR1 was cloned into the lentiviral vector of interest pCDH-CMV-MCS-EF1-Puro. The lentiviral plasmid bearing the mutant ESR1 gene sequence and the lentiviral packaging plasmid were then transfected into HEK-293T cells (ATCC, CRL-3216) by using Lipofectamine 3000 Transfection Reagent (ThermoFisher Scientific, Cat #L3000075). […]
The ERα mutant-expressing MCF7 cells were cultured in an MEM (GE Healthcare, SH30024.01) complete medium containing 10% fetal bovine serum. […] The plate was let stand at room temperature for 10 min, and the luminescence signal value was read using a multilabel microplate reader (PerkinElmer, VICTOR 3). The IC50 value for the inhibitory activity of the compound was calculated according to the compound concentration and the luminescence signal value and is shown in Table 3.

[2H]C1([2H])Oc2cc3c(cc2O1)[C@@H](c1ccc(NC2CN(CCCF)C2)cn1)N(CC(F)(F)CO)[C@H](C)C3 [Compound 1, 2,2-Difluoro-3-((5S,7R)-5-(5-((1-(3-fluoropropyl)azetidin-3-yl)amino)pyridin-2-yl)-7-methyl-7,8-dihydro-[1,3]dioxolo[4,5-g]isoquinolin-6(5H)-yl-2,2-d2)propan-1-ol]
IC50 [1]: 690 pM | DC50 [2]: 380 pM | IC50 [3]: 1360 pM
